# Counter-ions that a name gives are not always drawn. Like-named read-outs stand apart in the source and are kept apart here.
# Columns and labels:
# [1] = system: Plasmodium falciparum (P.f.); test: In vitro activity vs. P. falciparum; assay type: cell-based
# [2] = system: Trypanosoma brucei rhodesiense (T.b.r.); test: In vitro activity vs. T. b. rhodesiense; assay type: cell-based
# [3] = system: virulent STIP900 strain of T.b.r.; test: Mouse model of T.b.r. infection; assay type: in vivo
# [4] = read-out: IC-50 values versus Plasmodium falciparum (p.f.)
# [5] = read-out: IC-50 values versus Trypanosoma brucei rhodesiense (T.b.r.)
Compound,"IC50 ([1]; Table 1, read-out: P.f. IC50) [nM]","IC50 ([2]; Table 1, read-out: T.b.r. IC50) [nM]",melting point,also measured
"N=C(N)c1ccc(-c2ccc(O)c(-c3nc4cc(C(=N)N)ccc4[nH]3)c2)cc1 [Compound 4, 2-(4′-carbamimidoyl-4-hydroxy-biphenyl-3-yl)-1H-benzimidazole-5-carboxamidine acetate salt]",2.1,27,–,"IC50 [1, 4]: < 3 nM"
"N=C(NO)c1cccc(-c2ccc(O)c(-c3nc4cc(C(=N)NO)ccc4[nH]3)c2)c1 [Compound 7, N-hydroxy-2-[4-hydroxy-3′-(N-hydroxycarbamimidoyl)-biphenyl-3-yl]-1H-benzimidazole-5-carboxamidine]",–,–,352 to 355 °C,–
"CC(=O)O.N=C(N)c1cccc(-c2ccc(O)c(-c3nc4cc(C(=N)N)ccc4[nH]3)c2)c1 [Compound 8, 2-(3′-carbamimidoyl-4-hydroxy-biphenyl-3-yl)-1H-benzimidazole-5-carboxamidine acetate salt]",34,213,208 to 209 °C (dec.),–
"COc1cc(-c2ccc(C(=N)NO)cc2)cc(-c2nc3cc(C(=N)NO)ccc3[nH]2)c1O [Compound 11, N-hydroxy-2-[4-hydroxy-4′-(N-hydroxycarbamimidoyl)-5-methoxy-biphenyl-3-yl]-1H-benzimidazole-5-carboxamidine]",–,–,319 to 321 °C,–
"CC(=O)O.COc1cc(-c2ccc(C(=N)N)cc2)cc(-c2nc3cc(C(=N)N)ccc3[nH]2)c1O [Compound 12, 2-(4′-carbamimidoyl-4-hydroxy-5-methoxy-biphenyl-3-yl)-1H-benzimidazole-5-carboxamidine acetate salt]",131,31,230 to 231 °C (dec.),–
"N=C(NO)c1ccc(-c2cccc(-c3nc4cc(C(=N)NO)ccc4[nH]3)c2O)cc1 [Compound 15, N-hydroxy-2-[2-hydroxy-4′-(N-hydroxycarbamimidoyl)-biphenyl-3-yl]-1H-benzimidazole-5-carboxamidine]",–,–,322 to 325 °C (dec.),–
"CC(=O)O.N=C(N)c1ccc(-c2cccc(-c3nc4cc(C(=N)N)ccc4[nH]3)c2O)cc1 [Compound 16, 2-(4′-carbamimidoyl-2-hydroxy-biphenyl-3-yl)-1H-benzimidazole-5-carboxamidine acetate salt]",131,17,228 to 229.5 °C (dec.),"IC50 [2, 5]: < 20 nM; cure of the virulent STIP900 strain of T.b.r. in a mouse model [3]: cure"
"COc1ccc(-c2ccc(C(=N)NO)cc2)cc1-c1nc2cc(C(=N)NO)ccc2[nH]1 [Compound 19, N-hydroxy-2-[4′-(N-hydroxycarbamimidoyl)-4-methoxy-biphenyl-3-yl]-1H-benzimidazole-5-carboxamidine]",–,–,> 340 °C,–
"CC(=O)O.COc1ccc(-c2ccc(C(=N)N)cc2)cc1-c1nc2cc(C(=N)N)ccc2[nH]1 [Compound 20, 2-(4′-carbamimidoyl-4-methoxy-biphenyl-3-yl)-1H-benzimidazole-5-carboxamidine acetate salt]",40,53,220 to 221 °C,–
"N=C(NO)c1ccc(-c2cccc(-c3nc4cc(C(=N)NO)ccc4[nH]3)c2)cc1 [Compound 23, N-hydroxy-2-[4′-(N-hydroxycarbamimidoyl)-biphenyl-3-yl]-1H-benzimidazole-5-carboxamidine]",–,–,317 to 319 °C,–
"N=C(N)c1ccc(-c2cccc(-c3nc4cc(C(=N)N)ccc4[nH]3)c2)cc1 [Compound 24, 2-(4′-carbamimidoyl-biphenyl-3-yl)-1H-benzimidazole-5-carboxamidine acetate salt]",27.5,4.4,–,"IC50 [2, 5]: < 20 nM"
"Cc1cc(C(=N)NO)ccc1-c1cccc(-c2nc3cc(C(=N)NO)ccc3[nH]2)c1 [Compound 27, N-hydroxy-2-[4′-(N-hydroxycarbamimidoyl)-2′-methyl-biphenyl-3-yl]-1H-benzimidazole-5-carboxamidine]",–,–,295 to 297 °C (dec.),–
"CC(=O)O.Cc1cc(C(=N)N)ccc1-c1cccc(-c2nc3cc(C(=N)N)ccc3[nH]2)c1 [Compound 28, 2-(4′-carbamimidoyl-2′-methyl-biphenyl-3-yl)-1H-benzimidazole-5-carboxamidine acetate salt]",55,23,201 to 203 °C,–
"N=C(NO)c1ccc(-c2ccc(-c3nc4cc(C(=N)NO)ccc4[nH]3)c(F)c2)cc1 [Compound 31, 2-[3-fluoro-4′-(N-hydroxycarbamimidoyl)-biphenyl-4-yl]-N-hydroxy-1H-benzimidazole-5-carboxamidine]",–,–,281 to 283 °C (dec.),–
"CC(=O)O.N=C(N)c1ccc2[nH]c(-c3ccc(-c4ccc(C(=N)N)c(F)c4)cc3)nc2c1 [Compound 32, 2-(4′-carbamimidoyl-3′-fluoro-biphenyl-4-yl)-1H-benzimidazole-5-carboxamidine acetate salt]",–,–,210 to 212 °C (dec.),"IC50 ([1]; Table 2, read-out: P.f. IC50): 1.3 nM; IC50 [1, 4]: < 3 nM; IC50 ([2]; Table 2, read-out: T.b.r. IC50): 35 nM"
"CC(=O)O.COc1ccc(-c2ccc(C(=N)N)cn2)cc1-c1nc2cc(C(=N)N)ccc2[nH]1 [Compound 36, 2-[5-(5-carbamimidoyl-pyridin-2-yl)-2-methoxyphenyl]-1H-benzimidazole-5-carboxamidine acetate salt]",364,14,231 to 232 °C (dec.),"IC50 [2, 5]: < 20 nM"
"N=C(NO)c1ccc(-c2cccc(-c3nc4cc(C(=N)NO)ccc4[nH]3)c2)nc1 [Compound 39, N-hydroxy-2-{3-[5-(N-hydroxycarbamimidoyl)-pyridin-2-yl]-phenyl}-1H-benzimidazole-5-carboxamidine]",–,–,295 to 297 °C (dec.),–
"CC(=O)O.N=C(N)c1ccc(-c2cccc(-c3nc4cc(C(=N)N)ccc4[nH]3)c2)nc1 [Compound 40, 2-[3-(5-Carbamimidoyl-pyridin-2-yl)-phenyl]-1H-benzimidazole-5-carboxamidine acetate salt]",96,15,198 to 200 °C (dec.),"IC50 [2, 5]: < 20 nM; cure of the virulent STIP900 strain of T.b.r. in a mouse model [3]: cure"
"N=C(NO)c1ccc(-c2ccc(-c3nc4cc(C(=N)NO)ccc4[nH]3)cc2)nc1 [Compound 43, N-hydroxy-2-{4-[5-(N-hydroxycarbamimidoyl)-pyridin-2-yl]-phenyl}-1H-benzimidazole-5-carboxamidine]",–,–,305 to 308 °C (dec.),–
"CC(=O)O.N=C(N)c1ccc(-c2ccc(-c3nc4cc(C(=N)N)ccc4[nH]3)cc2)nc1 [Compound 44, 2-[4-(5-carbamimidoyl-pyridin-2-yl)-phenyl]-1H-benzimidazole-5-carboxamidine acetate salt]",–,–,240 to 241 °C,"IC50 ([1]; Table 2, read-out: P.f. IC50): 7 nM; IC50 ([2]; Table 2, read-out: T.b.r. IC50): 41 nM"
"N=C(NO)c1ccc(-c2ccc(-c3nc4cc(C(=N)NO)ccc4[nH]3)cc2)c(OCc2ccccc2)c1 [Compound 47, 2-[2′-benzyloxy-4′-(N-hydroxycarbamimidoyl)-biphenyl-4-yl]-N-hydroxy-1H-benzimidazole-5-carboxamidine]",–,–,250 to 253 °C (dec.),–
"CC(=O)O.N=C(N)c1ccc(-c2ccc(-c3nc4cc(C(=N)N)ccc4[nH]3)cc2)c(O)c1 [Compound 48, 2-(4′-carbamimidoyl-2′-hydroxy-biphenyl-4-yl)-1H-benzimidazole-5-carboxamidine acetate salt]",–,–,220 to 222 °C,"IC50 ([1]; Table 2, read-out: P.f. IC50): 19.1 nM; IC50 ([2]; Table 2, read-out: T.b.r. IC50): 27 nM"
"Cc1cc(C(=N)NO)ccc1-c1ccc(-c2nc3cc(C(=N)NO)ccc3[nH]2)cc1 [Compound 51, N-hydroxy-2-[4′-(N-hydroxycarbamimidoyl)-2′-methyl-biphenyl-4-yl]-1H-benzimidazole-5-carboxamidine]",–,–,300 to 302 °C,–
"CC(=O)O.Cc1cc(C(=N)N)ccc1-c1ccc(-c2nc3cc(C(=N)N)ccc3[nH]2)cc1 [Compound 52, 2-(4′-carbamimidoyl-2′-methylbiphenyl-4-yl)-1H-benzimidazole-5-carboxamidine acetate salt]",–,–,193 to 195 °C,"IC50 ([2]; Table 2, read-out: T.b.r. IC50): 6 nM; IC50 [2, 5]: < 20 nM"
N=C(N)c1ccc(-c2ccc(-c3nc4ccc(C(=N)N)cc4[nH]3)cc2)cc1 [Compound 56],–,–,–,"IC50 ([1]; Table 2, read-out: P.f. IC50): 0.5 nM; IC50 [1, 4]: < 3 nM; IC50 ([2]; Table 2, read-out: T.b.r. IC50): 7.7 nM; IC50 [2, 5]: < 20 nM"

# Source: patent US20050148646A1, “Dicationic triaryl analogs as anti-protozoan agents” (priority 2003, published 2005)
